# According to patent publication US11370847B2, “Single domain antibodies directed against intracellular antigens” (Singh Biotechnology, LLC, priority 2014, dated 2022):
# “And” between values parts separate entries of the source, which are not always exact repeats. Equal entries are not always repeated. Where two headings read alike, the source gives them in different places.
# B1: anti-STAT3 VHH14: second anti-STAT3 sdAb, SEQ ID NO:4 (protein)
# VHH: QVQLVESGGGSVQAGGSLRLSCVASTYTGCMGWFRQAPGKEREGVAALSSRGFAGHYTDSVKGRFSISRDYVKNAVYLQMNTVKPEDAAMYYCAAREGWECGETWLDRTAGGHTYWGQGTLVTVSS
# modifications: Camelid
# B2: anti-TNF-α VHH69: anti-TNF-α sdAb, SEQ ID NO:46 (protein)
# VHH: EVQLVESGGGSVLAGGSLRLSCVASGFTSRYNYMAWFRQAPGKEREGVATIGTASGSADYYGSVKDRFTISQDNAKNTVYLQMNSLKPEDTAMYYCAARTYGTISLTPSDYRYWGQGTLVTVSS
# modifications: Camelid
# B3: anti-TNF-α VHH62: anti-TNF-α sdAb, SEQ ID NO:47 (protein)
# VHH: QVQLVESGGGPVQAGETLRLSCTASGFTFAEADMGWYRQAPGHECELVSTITTEGITSEASSYYADSVRGRFTISRDNAKNMVYLQMNSLKPEDTAVYYCAPDPYAYSTYSDYCSWAQGTQGTLVTVSS
# modifications: Camelid
# Legend:
# STAT3 = STAT3 reporter GloResponse SIE-luc2P/HEK293 assay, IL-6 induction; assay type: cell-based; conditions: for effect on IL-6 induction of the STAT3 reporter: 24 and 48 hours treatment, VHH13 and VHH69 at highest concentration, VHH14 at both concentrations;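 as to all read-outs here: SIE-luc2P/HEK293 reporter cells stimulated with IL-6 at 40 ng/mL (EC80) after pretreatment, luciferase luminescence (RLU) read the following day, triplicate wells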
# MDA-MB-231 cells = assay: MTT proliferation assay, MDA-MB-231; assay type: cell-based, human; conditions: for Mean: mean absorbance;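 as to all read-outs here: proliferation of cultured human cancer cells read by MTT, with treated groups compared against a vehicle control group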
# PANC-1 cells = assay: MTT proliferation assay, PANC-1; conditions: for Abs: 72 hours
# SJSA-1 cells = assay: MTT proliferation assay, SJSA-1; assay type: cell-based, human; conditions: SJSA-1; 72 hours; 50 μg/ml
# [1] = molecular target: T1, active human TNF-α full length protein (Homo sapiens, UniProt P01375); assay: TNF-α binding ELISA; conditions: for detection in coated versus non-coated wells: 0.5 μg/mL coating antigen, sdAb at 1 μg/mL; for detection in TNF-α ELISA: Experiment 1, 1 μg/mL sdAb; for OD450 Values: Non-Coated wells (non-specific binding), sdAb 1 μg/mL
# T1 construct: active human TNF-α full length protein; purchased Abcam
# T1 sequence (P01375 77-233 limits assumed): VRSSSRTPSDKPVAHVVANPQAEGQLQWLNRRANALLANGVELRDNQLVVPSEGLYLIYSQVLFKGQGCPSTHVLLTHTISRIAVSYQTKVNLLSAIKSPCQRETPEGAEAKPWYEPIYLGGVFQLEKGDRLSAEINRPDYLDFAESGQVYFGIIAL
# Description: In this Example, the binding of anti-TNF-α sdAbs to active human TNF-α full length protein was assessed using an enzyme linked immunosorbent assay (ELISA) format. Additionally, the feasibility of utilizing a secondary antibody targeted to the his tag portion of the sdAbs was assessed.
# The test articles for this study were anti-TNF-α VHH62 (SEQ ID NO:47) sdAb, TNF-α VHH66 (SEQ ID NO:45) sdAb, and anti-TNF-α VHH69 (SEQ ID NO:46) sdAb (Experiment 1).
# For the assays to assess the binding of the sdAbs to TNF-α protein (Experiment 1, 4 and 5), a standard sandwich ELISA format was utilized. […] Plates were incubated overnight at 2-8° C. After the incubation, plates were washed (3×) and blocked (3% Bovine Serum Albumin (BSA) in Phosphate Buffered Saline (PBS)) for at least one hour at room temperature.
# After removal of the blocking buffer and washing (3×), samples were added to the appropriate wells of the ELISA plates and incubated at room temperature with shaking (150 rpm) for at least one hour. The secondary antibody (rabbit anti-llama biotinylated antibody at either a1:5,000 or 10,000 dilution) was then added to each well and incubated with shaking for at least one hour at room temperature.
# After the incubation with secondary antibody, the plates were again washed (3×) and horseradish peroxidase (HRP) at either a 1:25,000 or 1:50,000 dilution was added to each well. Plates were incubated with shaking for at least one hour at room temperature. A final wash (3×) was performed followed by the addition of TMB (Tetramethylbenzidine) substrate. After a 20 to 25 minute incubation at room temperature, stop solution was added to halt the colorimetric reaction. The absorbance at 450 nm was measured on a VersaMax instrument utilizing SoftMax Pro GxP version 5.4 software from Molecular Devices (Sunnyvale, Calif.).
# The final experiment performed was to confirm that the results from the ELISA testing were due to binding to the TNF-α protein and not non-specific binding of the sdAb. For this determination, a comparison was made between wells coated with 0.5 μg/mL of coating antigen and non-coated wells. […] This experiment confirms that the detection seen with the previous experiments was due to the specific binding of the VHH to the coating antigen and not due to non-specific binding.
# TNF-α = molecular target: T2, TNF-α (Homo sapiens, UniProt P01375); assay: Inhibition of TNF-α cytotoxicity against U937 by anti-TNF-α VHHs; assay type: cell-based; conditions: constant dose of TNF-α at EC50
# T2 construct: purchased Sigma-Aldrich
# T2 sequence (P01375 77-233 limits assumed): as above
# Description: The concentration of TNF-α required to show measurable modulation of activity in the U937 human […] cell line was evaluated by quantitation of the ATP present, which signals the presence of metabolically active cells using Promega's Cell Titer-Glo® Luminescent Cell Viability assay.
# The U937 cells were seeded in a clear polystyrene 96-well microculture plate (Corning® Costar® 96-well flat bottom plate, Cat. #3997) in a total volume of 90 μL/well. After 24 hours of incubation in a humidified incubator at 37° C. with 5% CO2 and 95% air, 5 μL of 20×, serially diluted TNF-α in growth medium was added to each well in duplicate (10 pt dose response, highest concentration 20 ng/mL). Additionally, 5 μL of 20×, diluted staurosporine in growth medium was added to each well in duplicate (concentration 1 nM).
# After 24 hours of culture in the presence of test agents, the concentration of compound required to show measurable modulation of TNF-α activity in the U937 cell line as evaluated by quantitation of the ATP present. Percent cell growth was calculated relative to untreated control wells. All tests were performed in duplicate at each concentration level.
# The EC50 value for the test agents was estimated using Prism 6.05 by curve-fitting the data using the following four parameter-logistic equation: […]
# [2] = tested on: rabbit anti-llama biotinylated antibody or his-probe (H-3) biotin labeled antibody; assay: ELISA of secondary antibody binding to coated sdAbs; conditions: Experiment 3, sdAb coated at 1 μg/mL, stored 1:100 dilution
# Description: Two assays (Experiment 2 and 3) were performed to assess the binding of the secondary antibody to the sdAbs. A similar ELISA method was utilized except the sdAbs were directly coated onto the assay plate at a concentration of 1 μg/mL. Plates were incubated overnight at 2-8° C. After the incubation, plates were washed (3×) and blocked (3% BSA in PBS) for at least one hour at room temperature.
# After removal of the blocking buffer and washing (3×), the secondary antibodies, either rabbit anti-llama biotinylated antibody or his-probe (H-3) biotin labeled antibody at was then added at a 1:5,000 dilution to each well and incubated with shaking for at least one hour at room temperature. Only the rabbit anti-llama biotinylated antibody was used in Experiment 2. Both antibodies were run in parallel in Experiment 3.
# After the incubation with secondary antibody, the plates were again washed (3×) and HRP at a 1:50,000 dilution was added to each well. Plates were incubated with shaking for at least one hour at room temperature. One last wash (3×) was performed followed by the addition of TMB substrate and plates were incubated at room temperature. For the anti-llama biotinylated antibody stop solution was added to halt the colorimetric reaction at 10 minutes. The his-probe (H-3) biotin labeled antibody was allowed to incubate for 20 minutes prior to stopping. The absorbance at 450 nm was measured as before.
# SIE-luc2P/HEK293 cells = assay: BCA protein concentration of reporter cells; assay type: cell-based
# [3] = 24 Hour Treatment Prior to IL6 Induction, higher conc.: VHH13 55.8 μg/mL, VHH14 84.3 μg/mL, BB1608 4.16 μM, VHH69 50.5 μg/mL
# [4] = 24 Hour Treatment Prior to IL6 Induction, lower conc.: VHH13, VHH14, VHH69 10 μg/mL, BB1608 2 μM
# [5] = 48 Hour Treatment Prior to IL6 Induction, higher conc.: VHH13 55.8 μg/mL, VHH14 84.3 μg/mL, BB1608 4.16 μM, VHH69 50.5 μg/mL
# [6] = 48 Hour Treatment Prior to IL6 Induction, lower conc.: VHH13, VHH14, VHH69 10 μg/mL, BB1608 2 μM
# [7] = Homo sapiens, PANC-1, 72 h, read-out: % Inhibition, Growth Inhibition of PANC-1 Cells
# [8] = Rabbit anti-Llama Secondary Antibody
molecule,measurement,setting,value
"CC(=O)c1cc2c(o1)C(=O)c1ccccc1C2=O [BBI608, napabucasin, reference compound]",Average RLU,STAT3; [3],33 RLU
same,Luminescence (replicate wells),STAT3; [3],41 RLU and 28 RLU and 31 RLU
same,Fold-Induction RLU/RLU of −IL6,STAT3; [4],0
same,Luminescence (replicate wells),STAT3; [4],41 RLU and 33 RLU and 39 RLU
same,effect on IL-6 induction of the STAT3 reporter,STAT3,Inhibition of IL-6
same,Fold-Induction RLU/RLU of −IL6,STAT3; [5],0
same,Luminescence (replicate wells),STAT3; [5],32 RLU and 25 RLU and 31 RLU
same,Average RLU,STAT3; [6],33 RLU
same,Luminescence (replicate wells),STAT3; [6],31 RLU and 26 RLU and 42 RLU
MPT B1 (pH 5.0): SBT-100 produced by Microprotein Technologies,"MTT absorbance, single replicates","MDA-MB-231 cells; MDA-MB-231, 50 μg/ml",0.924 and 0.741 and 0.834 and 0.749 and 0.771 and 0.77
same,Mean,"MDA-MB-231 cells; MDA-MB-231, 50 μg/ml",0.798
same,"MTT absorbance, single replicates","MDA-MB-231 cells; MDA-MB-231, 100 μg/ml",0.65 and 0.656 and 0.624
same,Mean,"MDA-MB-231 cells; MDA-MB-231, 100 μg/ml",0.643
Nc1ccn([C@@H]2O[C@H](CO)[C@@H](O)C2(F)F)c(=O)n1 [Gemcitabine],Abs,PANC-1 cells; Gemcitabine Hydrochloride (Biovision #1759) 0.020 μM alone,1.631
same,Abs,PANC-1 cells; Gemcitabine Hydrochloride (Biovision #1759) 0.039 μM alone,1.550
same,Abs,PANC-1 cells; Gemcitabine Hydrochloride (Biovision #1759) 0.313 μM alone,1.084
same,Abs,PANC-1 cells; Gemcitabine Hydrochloride (Biovision #1759) 0.625 μM alone,1.001
same,Abs,PANC-1 cells; Gemcitabine Hydrochloride (Biovision #1759) 5 μM alone,0.654
same,Abs,PANC-1 cells; Gemcitabine Hydrochloride (Biovision #1759) 10 μM alone,0.576
same,inhibition at 0.02 µM,"PANC-1 cells; Homo sapiens, PANC-1",0%
same,inhibition at 0.039 µM,"PANC-1 cells; Homo sapiens, PANC-1",0%
same,inhibition at 0.313 µM,"PANC-1 cells; Homo sapiens, PANC-1",5%
same,inhibition at 0.625 µM,"PANC-1 cells; Homo sapiens, PANC-1",0%
same,inhibition at 5 µM,"PANC-1 cells; Homo sapiens, PANC-1",40%
same,inhibition at 10 µM,"PANC-1 cells; Homo sapiens, PANC-1",48%
same,inhibition at 5 µM,PANC-1 cells; [7],38%
same,inhibition at 10 µM,PANC-1 cells; [7],35%
same,inhibition at 10 µM,"PANC-1 cells; Homo sapiens, PANC-1, 72 h, read-out: growth inhibition of PANC-1 cells",48%
"Curirx P04: SBT-100 produced by Curirx, P04 buffer sample",growth inhibition,SJSA-1 cells,significant growth inhibition
"MPT His Tag: SBT-100 produced by Microprotein Technologies, His tag preparation",inhibition compared with other SBT-100 preparations,MDA-MB-231 cells; MDA-MB-231,greatest inhibition
same,"MTT absorbance, single replicates","MDA-MB-231 cells; MDA-MB-231, 50 μg/ml",0.095 and 0.091 and 0.102 and 0.1 and 0.087 and 0.092
same,Mean,"MDA-MB-231 cells; MDA-MB-231, 50 μg/ml",0.0945
same,"MTT absorbance, single replicates","MDA-MB-231 cells; MDA-MB-231, 100 μg/ml",0.74 and 0.8 and 0.82
same,Mean,"MDA-MB-231 cells; MDA-MB-231, 100 μg/ml",0.079
B1,effect on IL-6 induction of the STAT3 reporter,STAT3,enhancement of the IL-6 induction
B2,detection in coated versus non-coated wells,[1],detected in coated wells but not in non-coated wells
same,detection in TNF-α ELISA,[1],little to no detection
same,OD450 Values,[1],0.007
same,inhibition of TNF-α killing of U937,TNF-α,inhibit killing of U937 by TNF-α
same,OD450 Values,[2]; His-probe (H-3),0.153
same,OD450 Values,[2]; [8],0.443
same,Protein concentration,SIE-luc2P/HEK293 cells; [3],213
same,Protein concentration,SIE-luc2P/HEK293 cells; [4],237
same,Protein concentration,SIE-luc2P/HEK293 cells; [6],222
same,Average RLU,STAT3; [3],198596 RLU
same,Average RLU with Media Blank,STAT3; [3],198571 RLU
same,Fold-Induction RLU/RLU of −IL6,STAT3; [3],434
same,Luminescence (replicate wells),STAT3; [3],203139 RLU and 194320 RLU and 198330 RLU
same,Average RLU,STAT3; [4],169752 RLU
same,Average RLU with Media Blank,STAT3; [4],169726 RLU
same,Fold-Induction RLU/RLU of −IL6,STAT3; [4],371
same,Luminescence (replicate wells),STAT3; [4],159115 RLU and 184364 RLU and 165776 RLU
same,effect on IL-6 induction of the STAT3 reporter,STAT3,enhancement of the IL-6 induction
same,Average RLU,STAT3; [5],225726 RLU
same,Average RLU with Media Blank,STAT3; [5],225694 RLU
same,Fold-Induction RLU/RLU of −IL6,STAT3; [5],452
same,Luminescence (replicate wells),STAT3; [5],219104 RLU and 237816 RLU and 220259 RLU
same,Average RLU,STAT3; [6],172988 RLU
same,Average RLU with Media Blank,STAT3; [6],172955 RLU
same,Fold-Induction RLU/RLU of −IL6,STAT3; [6],347
same,Luminescence (replicate wells),STAT3; [6],155927 RLU and 191241 RLU and 171796 RLU
B3,detection in coated versus non-coated wells,[1],not detected in either coated or non-coated wells
same,detection in TNF-α ELISA,[1],little to no detection
same,OD450,"[1]; Experiment 4, original and new receipt, dilutions starting at 1 μg/mL",< 0.2 OD450
same,OD450 Values,[1],−0.001
same,inhibition of TNF-α killing of U937,TNF-α,inhibit killing of U937 by TNF-α
same,OD450 Values,[2]; His-probe (H-3),0.196
same,OD450 Values,[2]; [8],2.341
